“And” between values parts separate entries of the source, which are not always exact repeats. Identical values can stand only once.
Experiments:
Assay in all cases: Kinase inhibition screen, cell-free 33P ATP assay at 10 μM
Type in all cases: biochemical
[1] = biological target: T1, 140 purified human kinases (Homo sapiens, UniProt O00418); conditions: EF2K
T1 sequence (O00418 1-725): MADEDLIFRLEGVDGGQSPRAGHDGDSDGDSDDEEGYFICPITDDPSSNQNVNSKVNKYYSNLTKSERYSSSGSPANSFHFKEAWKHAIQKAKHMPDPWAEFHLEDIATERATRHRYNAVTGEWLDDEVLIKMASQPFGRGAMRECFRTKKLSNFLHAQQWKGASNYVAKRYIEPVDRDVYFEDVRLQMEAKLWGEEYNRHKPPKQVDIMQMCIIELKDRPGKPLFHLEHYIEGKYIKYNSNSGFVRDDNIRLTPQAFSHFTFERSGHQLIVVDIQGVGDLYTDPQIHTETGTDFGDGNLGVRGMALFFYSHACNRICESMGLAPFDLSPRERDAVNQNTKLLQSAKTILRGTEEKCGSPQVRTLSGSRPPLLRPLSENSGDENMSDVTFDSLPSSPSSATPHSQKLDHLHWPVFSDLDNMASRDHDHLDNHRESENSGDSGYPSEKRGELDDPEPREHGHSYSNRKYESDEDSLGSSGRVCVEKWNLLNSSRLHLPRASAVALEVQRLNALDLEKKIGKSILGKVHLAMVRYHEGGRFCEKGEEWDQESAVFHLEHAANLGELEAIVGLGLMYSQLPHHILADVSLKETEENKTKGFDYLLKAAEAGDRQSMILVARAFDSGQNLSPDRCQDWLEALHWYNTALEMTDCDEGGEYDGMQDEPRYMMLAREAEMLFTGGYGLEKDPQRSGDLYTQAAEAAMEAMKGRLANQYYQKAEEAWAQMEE
In short: (§1)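 Each complex tested in duplicate at 10 μM; cell-free radiometric assay using ^33P ATP on purified enzymes. Hits mapped by HGNC symbol onto the kinome tree.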

[2] = biological target: 140 purified human kinases (Homo sapiens, UniProt P05129); conditions: PKCγ
In short: as §1

[3] = biological target: 140 purified human kinases (Homo sapiens, UniProt P11309)
Chain of 140 purified human kinases (Homo sapiens, UniProt P11309) (P11309 whole entry): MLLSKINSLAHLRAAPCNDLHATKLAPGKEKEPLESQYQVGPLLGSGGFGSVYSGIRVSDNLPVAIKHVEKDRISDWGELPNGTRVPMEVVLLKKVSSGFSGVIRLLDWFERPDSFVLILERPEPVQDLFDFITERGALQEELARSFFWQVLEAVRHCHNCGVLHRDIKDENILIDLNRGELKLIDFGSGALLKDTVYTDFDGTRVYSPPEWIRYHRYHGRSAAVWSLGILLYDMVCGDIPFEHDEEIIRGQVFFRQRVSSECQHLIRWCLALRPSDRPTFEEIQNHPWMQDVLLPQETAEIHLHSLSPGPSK
In short: as §1

[4] = biological target: T2, 140 purified human kinases (Homo sapiens, UniProt P29323)
T2 sequence (P29323 19-1055): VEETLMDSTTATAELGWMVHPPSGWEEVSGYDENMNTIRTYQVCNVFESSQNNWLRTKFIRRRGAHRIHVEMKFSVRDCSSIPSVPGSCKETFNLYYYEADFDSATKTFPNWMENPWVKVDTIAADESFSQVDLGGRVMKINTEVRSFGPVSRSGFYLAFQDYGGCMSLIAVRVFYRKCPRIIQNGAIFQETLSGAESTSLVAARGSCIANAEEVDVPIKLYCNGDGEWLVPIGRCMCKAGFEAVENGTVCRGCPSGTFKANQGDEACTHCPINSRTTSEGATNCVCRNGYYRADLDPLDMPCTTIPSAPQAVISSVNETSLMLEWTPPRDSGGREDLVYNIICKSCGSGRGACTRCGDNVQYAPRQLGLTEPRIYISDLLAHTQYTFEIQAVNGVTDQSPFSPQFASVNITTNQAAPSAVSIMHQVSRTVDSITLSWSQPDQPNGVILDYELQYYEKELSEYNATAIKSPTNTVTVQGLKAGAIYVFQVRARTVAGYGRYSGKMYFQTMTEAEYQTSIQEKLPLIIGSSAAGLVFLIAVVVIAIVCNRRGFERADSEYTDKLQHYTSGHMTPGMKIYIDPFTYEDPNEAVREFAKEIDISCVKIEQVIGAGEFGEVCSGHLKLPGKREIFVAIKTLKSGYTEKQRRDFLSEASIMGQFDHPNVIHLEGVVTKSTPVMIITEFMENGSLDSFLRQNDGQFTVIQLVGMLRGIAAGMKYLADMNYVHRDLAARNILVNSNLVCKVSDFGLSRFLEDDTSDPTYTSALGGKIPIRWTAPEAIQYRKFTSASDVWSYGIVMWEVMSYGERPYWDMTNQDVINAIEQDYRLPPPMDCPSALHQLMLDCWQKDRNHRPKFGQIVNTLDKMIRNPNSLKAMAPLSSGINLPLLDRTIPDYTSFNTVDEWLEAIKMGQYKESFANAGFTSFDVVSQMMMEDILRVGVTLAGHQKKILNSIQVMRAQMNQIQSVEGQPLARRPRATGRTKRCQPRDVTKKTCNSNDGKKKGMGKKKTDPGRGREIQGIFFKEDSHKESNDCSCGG
In short: as §1

[5] = biological target: 140 purified human kinases (Homo sapiens, UniProt P43405); conditions: SYK
In short: as §1

[6] = biological target: 140 purified human kinases (Homo sapiens, UniProt P45983)
Chain of 140 purified human kinases (Homo sapiens, UniProt P45983) (P45983 whole entry): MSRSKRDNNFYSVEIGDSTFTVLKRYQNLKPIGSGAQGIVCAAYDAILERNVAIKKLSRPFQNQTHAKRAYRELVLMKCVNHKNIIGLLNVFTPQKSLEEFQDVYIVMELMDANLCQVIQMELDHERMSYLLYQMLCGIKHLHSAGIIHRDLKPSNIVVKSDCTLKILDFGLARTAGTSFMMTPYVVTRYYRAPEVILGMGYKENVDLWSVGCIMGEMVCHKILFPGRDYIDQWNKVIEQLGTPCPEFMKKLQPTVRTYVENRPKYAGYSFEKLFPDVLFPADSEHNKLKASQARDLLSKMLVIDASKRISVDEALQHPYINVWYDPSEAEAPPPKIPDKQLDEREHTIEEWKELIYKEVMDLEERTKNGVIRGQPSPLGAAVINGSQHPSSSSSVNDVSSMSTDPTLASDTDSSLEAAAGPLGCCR
In short: as §1

[7] = biological target: 140 purified human kinases (Homo sapiens, UniProt Q96SB4)
Chain of 140 purified human kinases (Homo sapiens, UniProt Q96SB4) (Q96SB4 whole entry): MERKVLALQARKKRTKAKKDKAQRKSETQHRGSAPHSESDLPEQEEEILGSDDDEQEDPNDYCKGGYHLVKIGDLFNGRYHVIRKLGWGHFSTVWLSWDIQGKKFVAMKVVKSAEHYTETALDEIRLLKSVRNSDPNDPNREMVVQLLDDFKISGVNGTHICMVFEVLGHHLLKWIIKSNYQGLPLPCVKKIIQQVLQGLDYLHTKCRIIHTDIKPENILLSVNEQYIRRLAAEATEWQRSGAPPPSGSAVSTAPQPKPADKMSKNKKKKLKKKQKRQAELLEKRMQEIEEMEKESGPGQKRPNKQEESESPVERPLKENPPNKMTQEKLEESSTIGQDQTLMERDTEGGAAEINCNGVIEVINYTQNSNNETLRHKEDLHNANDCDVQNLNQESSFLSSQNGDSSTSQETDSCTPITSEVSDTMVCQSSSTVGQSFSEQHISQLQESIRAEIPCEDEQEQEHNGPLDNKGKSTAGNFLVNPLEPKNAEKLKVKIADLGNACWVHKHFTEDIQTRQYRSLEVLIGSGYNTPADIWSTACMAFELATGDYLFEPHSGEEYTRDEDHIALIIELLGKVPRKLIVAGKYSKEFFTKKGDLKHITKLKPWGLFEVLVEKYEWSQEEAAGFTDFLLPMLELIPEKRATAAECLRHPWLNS
In short: as §1

[8] = biological target: 140 purified human kinases (Homo sapiens, UniProt Q9HBH9)
Chain of 140 purified human kinases (Homo sapiens, UniProt Q9HBH9) (Q9HBH9 whole entry): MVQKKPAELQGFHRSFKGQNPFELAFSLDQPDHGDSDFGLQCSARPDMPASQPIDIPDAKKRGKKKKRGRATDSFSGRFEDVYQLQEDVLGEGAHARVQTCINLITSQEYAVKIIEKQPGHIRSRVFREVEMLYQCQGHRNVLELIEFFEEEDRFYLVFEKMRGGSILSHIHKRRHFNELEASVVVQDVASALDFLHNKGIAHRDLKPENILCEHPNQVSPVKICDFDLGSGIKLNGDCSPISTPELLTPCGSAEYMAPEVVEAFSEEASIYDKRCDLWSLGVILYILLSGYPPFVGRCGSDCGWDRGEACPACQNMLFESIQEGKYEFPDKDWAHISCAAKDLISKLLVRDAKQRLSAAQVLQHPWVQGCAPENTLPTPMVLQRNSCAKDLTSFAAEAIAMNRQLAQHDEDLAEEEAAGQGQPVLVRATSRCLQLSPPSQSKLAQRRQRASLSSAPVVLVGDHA
In short: as §1

[9] = system: 140 purified human kinases; conditions: PHK
In short: as §1

**Q.** What does the source list for `[Cu+2].[Cu+2].[Cu+2].c1ccc(-c2csc(NCCN(CCNc3nc(-c4ccccn4)cs3)CCNc3nc(-c4ccccn4)cs3)n2)nc1.c1ccc(-c2csc(NCCN(CCNc3nc(-c4ccccn4)cs3)CCNc3nc(-c4ccccn4)cs3)n2)nc1` [[L2Cu3]6+]?
**A.** % Inhibition Run 1 [1]: 60.6%; % Inhibition Run 2 [1]: 65.9%; % Inhibition, Mean [1]: 63%; mean % activity [1]: 37%; % activity ([1]; Run 1): 39.4%; % activity ([1]; Run 2): 34.1%; % Inhibition Run 1 [2]: 58.1%; % Inhibition Run 2 [2]: 72%; % Inhibition, Mean [2]: 65%; mean % activity [2]: 35%; % activity ([2]; Run 1): 41.9%; % activity ([2]; Run 2): 28%; % Inhibition Run 1 ([3]; PIM1): 53.7%; % Inhibition Run 2 ([3]; PIM1): 42%; % Inhibition, Mean ([3]; PIM1): 48%; mean % activity ([3]; PIM1): 52%; % activity ([3]; PIM1, Run 1): 46.3%; % activity ([3]; PIM1, Run 2): 58%; % Inhibition Run 1 ([4]; EPH-B2): 57.3%; % Inhibition Run 2 ([4]; EPH-B2): 57.8%; % Inhibition, Mean ([4]; EPH-B2): 58%; mean % activity ([4]; EPH-B2): 42%; % activity ([4]; EPH-B2, Run 1): 42.7%; % activity ([4]; EPH-B2, Run 2): 42.2%; % Inhibition Run 1 [5]: 88%; % Inhibition Run 2 [5]: 79.4%; % Inhibition, Mean [5]: 84%; mean % activity [5]: 16%; % activity ([5]; Run 1): 12%; % activity ([5]; Run 2): 20.6%; % Inhibition Run 1 ([6]; JNK1): 20.4%; % Inhibition Run 2 ([6]; JNK1): 5.8%; % Inhibition, Mean ([6]; JNK1): 13%; mean % activity ([6]; JNK1): 87%; % activity ([6]; JNK1, Run 1): 79.6%; % activity ([6]; JNK1, Run 2): 94.2%; % Inhibition Run 1 ([7]; SRPK1): 58.1%; % Inhibition Run 2 ([7]; SRPK1): 50.4%; % Inhibition, Mean ([7]; SRPK1): 54%; mean % activity ([7]; SRPK1): 46%; % activity ([7]; SRPK1, Run 1): 41.9%; % activity ([7]; SRPK1, Run 2): 49.6%; % Inhibition Run 1 ([8]; MNK2): 59.3%; % Inhibition Run 2 ([8]; MNK2): 57.8%; % Inhibition, Mean ([8]; MNK2): 59%; mean % activity ([8]; MNK2): 41%; % activity ([8]; MNK2, Run 1): 40.7%; % activity ([8]; MNK2, Run 2): 42.2%; % activity ([9]; Run 1): 40.1%; % activity ([9]; Run 2): 50.7%

**Q.** For `CC(=O)[O-].CC(=O)[O-].CC(=O)[O-].CC(=O)[O-].CC(=O)[O-].CC(=O)[O-].[Zn+2].[Zn+2].[Zn+2].c1ccc(-c2csc(NCCN(CCNc3nc(-c4ccccn4)cs3)CCNc3nc(-c4ccccn4)cs3)n2)nc1.c1ccc(-c2csc(NCCN(CCNc3nc(-c4ccccn4)cs3)CCNc3nc(-c4ccccn4)cs3)n2)nc1` [[L2Zn3]6+], which “% Activation, Mean value” [1] is on record?
**A.** Its value is 0.8%.

**Q.** And the “% Inhibition, Mean” value [1]?
**A.** Its value is -0.8%.

**Q.** What about the “% Inhibition, Run 1 / Run 2” value [1] of the same compound?
**A.** The value was 2% and -3.6%.

**Q.** What about the mean % activity [1] of the same compound?
**A.** Its mean % activity is 101%.

**Q.** And the “% activity” value ([1]; duplicate runs)?
**A.** The value was 98% and 104%.

**Q.** And the “% Inhibition, Mean” value [2]?
**A.** The value was 32%.

**Q.** What about the “% Inhibition, Run 1 / Run 2” value [2] of the same compound?
**A.** The value was 36% and 27%.

**Q.** What about the mean % activity [2] of the same compound?
**A.** Its mean % activity is 68%.

**Q.** What about the “% activity” value ([2]; duplicate runs) of the same compound?
**A.** The value was 64% and 73%.

**Q.** And the “% Inhibition, Mean” value ([3]; PIM1)?
**A.** The value was 26%.

**Q.** What about the “% Inhibition, Run 1 / Run 2” value ([3]; PIM1) of the same compound?
**A.** Its value is 28% and 23%.

**Q.** And the mean % activity ([3]; PIM1)?
**A.** The mean % activity was 74%.

**Q.** What about the “% activity” value ([3]; PIM1, duplicate runs) of the same compound?
**A.** Its value is 72% and 77%.

**Q.** And the “% Inhibition, Mean” value ([4]; EPH-B2)?
**A.** The value was 88%.

**Q.** What about the “% Inhibition, Run 1 / Run 2” value ([4]; EPH-B2) of the same compound?
**A.** The value was 89% and 87%.

**Q.** What about the mean % activity ([4]; EPH-B2) of the same compound?
**A.** Its mean % activity is 12%.

**Q.** What about the “% Activity inhibition Mean” value ([4]; EPH-B2, 10 µM) of the same compound?
**A.** Its value is 88.0%.

**Q.** What about the “% Activity inhibition Run 1” value ([4]; EPH-B2, 10 µM) of the same compound?
**A.** The value was 89%.

**Q.** And the “% Activity inhibition Run 2” value ([4]; EPH-B2, 10 µM)?
**A.** The value was 87%.

**Q.** And the “% Activity remaining Run 1” value ([4]; EPH-B2, 10 µM)?
**A.** Its value is 11%.

**Q.** And the “% Activity remaining Run 2” value ([4]; EPH-B2, 10 µM)?
**A.** Its value is 13%.

**Q.** What about the “% activity” value ([4]; EPH-B2, duplicate runs) of the same compound?
**A.** The value was 11% and 13%.

**Q.** What about the “% Inhibition, Mean” value [5] of the same compound?
**A.** Its value is 29%.

**Q.** What about the mean % activity [5] of the same compound?
**A.** The mean % activity was 71%.

**Q.** What about the “% activity” value ([5]; duplicate runs) of the same compound?
**A.** Its value is 58% and 84%.

**Q.** What about the “% Inhibition, Mean” value ([6]; JNK1) of the same compound?
**A.** Its value is 5%.

**Q.** And the mean % activity ([6]; JNK1)?
**A.** The mean % activity was 95%.

**Q.** And the “% activity” value ([6]; JNK1, duplicate runs)?
**A.** The value was 88% and 102%.

**Q.** What about the “% Inhibition, Mean” value ([7]; SRPK1) of the same compound?
**A.** The value was 35%.

**Q.** And the mean % activity ([7]; SRPK1)?
**A.** Its mean % activity is 66%.

**Q.** And the “% activity” value ([7]; SRPK1, duplicate runs)?
**A.** Its value is 53% and 78%.

**Q.** And the “% Inhibition, Mean” value ([8]; MNK2)?
**A.** The value was 33%.

**Q.** What about the “% Inhibition, Run 1 / Run 2” value ([8]; MNK2) of the same compound?
**A.** The value was 44% and 22%.

**Q.** What about the mean % activity ([8]; MNK2) of the same compound?
**A.** The mean % activity was 67%.

**Q.** What about the “% activity” value ([8]; MNK2, duplicate runs) of the same compound?
**A.** The value was 57% and 78%.

**Q.** And the “% Inhibition, Run 1 / Run 2” value [9]?
**A.** Its value is 68% and 61%.

— PMC8222254, “Self-assembly of an anion receptor with metal-dependent kinase inhibition and potent in vitro anti-cancer properties” (Nature Communications, 2021)
